The text below walks through data of US6093730A, “Substituted isoquinoline-3-carboxamides, their preparation and their use as pharmaceuticals” (Hoechst Marion Roussel Deutschland GmbH, priority 1997, dated 2000).

Data set [1] addresses T1, prolyl-4-hydroxylase (Gallus gallus, UniProt P16924).
T1 sequence (P16924 1-516): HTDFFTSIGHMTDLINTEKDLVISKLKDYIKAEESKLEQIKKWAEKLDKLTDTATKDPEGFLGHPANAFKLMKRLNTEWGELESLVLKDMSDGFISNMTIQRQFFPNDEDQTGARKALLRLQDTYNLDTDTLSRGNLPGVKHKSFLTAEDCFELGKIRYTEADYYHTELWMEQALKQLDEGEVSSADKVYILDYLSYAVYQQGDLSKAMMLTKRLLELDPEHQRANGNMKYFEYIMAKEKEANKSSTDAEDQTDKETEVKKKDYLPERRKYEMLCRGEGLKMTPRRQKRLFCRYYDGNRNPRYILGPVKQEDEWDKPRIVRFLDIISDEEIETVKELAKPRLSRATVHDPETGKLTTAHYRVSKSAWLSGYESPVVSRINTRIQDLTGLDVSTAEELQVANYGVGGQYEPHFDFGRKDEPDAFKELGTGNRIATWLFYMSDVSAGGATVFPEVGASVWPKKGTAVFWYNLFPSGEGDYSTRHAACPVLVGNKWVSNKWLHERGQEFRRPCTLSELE
T1 sequence (P09102 23-515 partner): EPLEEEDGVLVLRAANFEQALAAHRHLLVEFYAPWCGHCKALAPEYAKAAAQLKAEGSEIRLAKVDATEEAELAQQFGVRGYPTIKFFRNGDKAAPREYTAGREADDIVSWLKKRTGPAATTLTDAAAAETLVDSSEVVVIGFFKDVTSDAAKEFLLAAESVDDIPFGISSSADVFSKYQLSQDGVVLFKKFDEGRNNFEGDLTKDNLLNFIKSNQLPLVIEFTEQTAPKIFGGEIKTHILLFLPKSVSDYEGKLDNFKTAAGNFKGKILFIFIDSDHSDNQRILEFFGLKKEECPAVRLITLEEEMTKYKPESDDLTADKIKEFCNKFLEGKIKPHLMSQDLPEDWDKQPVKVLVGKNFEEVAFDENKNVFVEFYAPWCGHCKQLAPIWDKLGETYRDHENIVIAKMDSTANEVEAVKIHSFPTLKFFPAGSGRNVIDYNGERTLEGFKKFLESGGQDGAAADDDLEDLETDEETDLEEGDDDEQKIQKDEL
The data set can be described thus: Inhibition of prolyl-4-hydroxylase (Table I). In kind it is biochemical. On the procedure:
The inhibition of this enzyme was determined as described by Kaule and Gunzler, ANAL. BIOCHEM.

The subject of data set [2] is hydroxyproline formation. The data set can be described thus: Carbon tetrachloride-induced liver fibrosis model in rats, inhibition of hydroxyproline formation. Format: in vivo, rat. The note with it: two weeks with CCl4. On the procedure:
The antifibrotic action was determined in the model of carbon tetrachloride-induced liver fibrosis. For this, rats were treated twice weekly with CCl4 (1 ml/kg) dissolved in olive oil. The test substance was administered daily, if appropriate even twice daily, orally or intraperitoneally dissolved in a suitable compatible solvent. The extent of the liver fibrosis was determined histologically and the proportion of collagen in the liver was analyzed by hydroxyproline determination as described in Kivirikko et al., ANAL. BIOCHEM. […] The fibrogenesis activity was determined by radioimmunological determination of collagen fragments and procollagen peptides in the serum.
The measurement of the inhibition of hydroxyproline formation by the test substances was based on this level.
Here the experimental animals were treated for two weeks only with carbon tetrachloride, then for the next two weeks with carbon tetrachloride and test substance. The test substances were administered intraperitoneally twice per day in the total amount indicated below in Table II,

Data set [3] has as its system liver steatosis. The data set can be described thus: Liver steatosis on treatment of male rats. Format: in vivo, rat. To be noted: up to six weeks, male rats (Fischer F344, Sprague Dawley, Wistar), 2×25 mg/kg i.p/day, in water/NaHCO3.
Data set [4] has as its system collagen biosynthesis. To be noted: Franklin et al.; cited from earlier work.
The test system of data set [5] is liver. To be noted: rats; Franklin 1997; cited from earlier work.

`O=C(O)CNC(=O)c1nc(Cl)c2ccccc2c1O` [Example 9, N-((1-Chloro-4-hydroxyisoquinolin-3-yl)carbonyl)glycine]: inhibition in data set [1] was half-maximal at 2300 nM (IC50). The “Change in hydroxyproline formation” value is reported as -67% in data set [2] (20 mg/kg (total), intraperitoneal twice per day); -65% in data set [2] (40 mg/kg (total), intraperitoneal twice per day); -58% in data set [2] (100 mg/kg (total), intraperitoneal twice per day); -71% in data set [2] (100 mg/kg, oral administration). Also, the liver steatosis result in data set [3] is given as “It was not possible to demonstrate any liver steatosis”.
Take `O=C(O)CNC(=O)c1ncc2cc(Br)ccc2c1O` [N-((7-bromo-4-hydroxy-isoquinolin-3-yl)carbonyl)glycine]: the “in-vivo activity on collagen biosynthesis” value in data set [4] is reported as “in-vivo inhibition of collagen biosynthesis”. The “toxic action on the liver” value in data set [5] is on record as “toxic action on the liver (steatosis)”.

Usually IC50 stands for the concentration that gives 50% inhibition. A high value points to a need for much substance.
